Where “and” joins values, the source holds several entries; their conditions need not be identical. Identical values can stand only once. Inconclusive results and toxic doses are left out. Rule as the data show it: active = T/C of 150% or more; inactive = T/C below 125%.
Tested on: L1210 leukemia ip in BDF1 mice, survival T/C
Experiment: NCI In Vivo Anticancer Drug Screen. Data for tumor model L1210 Leukemia (intraperitoneal) in B6D2F1 (BDF1) mice
Details: endpoint: mean survival time, higher = longer survival
Summary of the method: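 Survival endpoint. Drug-treated group vs vehicle group, expressed as T divided by C. Tumor passaged by transplantation.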

[1] = dose: 100.0 mg/kg/injection, schedule: Q01DX009 (ip), vehicle: Klucel (hydroxypropylcellulose) (HPC)
[2] = dose: 100.0 mg/kg/injection, schedule: Q04DX003 (ip), vehicle: Klucel (hydroxypropylcellulose) (HPC)
[3] = dose: 200.0 mg/kg/injection, schedule: Q04DX003 (ip), vehicle: Klucel (hydroxypropylcellulose) (HPC)
[4] = dose: 400.0 mg/kg/injection, schedule: Q04DX003 (ip), vehicle: Klucel (hydroxypropylcellulose) (HPC)
[5] = dose: 100.0 mg/kg/injection, schedule: Q01DX001 (ip), vehicle: carboxymethylcellulose (CMC)
[6] = dose: 200.0 mg/kg/injection, schedule: Q01DX001 (ip), vehicle: carboxymethylcellulose (CMC)
[7] = dose: 25.0 mg/kg/injection, schedule: Q01DX009 (ip), vehicle: Klucel (hydroxypropylcellulose) (HPC)
[8] = dose: 50.0 mg/kg/injection, schedule: Q01DX009 (ip), vehicle: Klucel (hydroxypropylcellulose) (HPC)
[9] = dose: 100.0 mg/kg/injection, schedule: Q01DX009 (ip), vehicle: saline with Tween-80
[10] = dose: 200.0 mg/kg/injection, schedule: Q01DX009 (ip), vehicle: saline with Tween-80
[11] = dose: 100.0 mg/kg/injection, schedule: Q01DX001 (ip), vehicle: Klucel (hydroxypropylcellulose) (HPC)
[12] = dose: 200.0 mg/kg/injection, schedule: Q01DX001 (ip), vehicle: Klucel (hydroxypropylcellulose) (HPC)
[13] = dose: 400.0 mg/kg/injection, schedule: Q01DX001 (ip), vehicle: Klucel (hydroxypropylcellulose) (HPC)
[14] = dose: 100.0 mg/kg/injection, schedule: Q04DX003 (ip), vehicle: saline with Tween-80
[15] = dose: 200.0 mg/kg/injection, schedule: Q04DX003 (ip), vehicle: saline with Tween-80
[16] = dose: 400.0 mg/kg/injection, schedule: Q04DX003 (ip), vehicle: saline with Tween-80

Measured: T/C

O=S1(=O)c2ccccc2Oc2ccccc21
inactive: dose: 50.0 mg/kg/injection, schedule: Q01DX001 (ip), vehicle: other 93 % of control | dose: 100.0 mg/kg/injection, schedule: Q01DX001 (ip), vehicle: other 93 % of control | dose: 200.0 mg/kg/injection, schedule: Q01DX001 (ip), vehicle: other 100 % of control | dose: 400.0 mg/kg/injection, schedule: Q01DX001 (ip), vehicle: other 96 % of control

Nc1ncnc2c1ncn2C1CC(O)C(O)CO1 (stereo not drawn)
inactive: dose: 100.0 mg/kg/injection, schedule: Q01DX001 (ip), vehicle: saline 105 % of control | dose: 200.0 mg/kg/injection, schedule: Q01DX001 (ip), vehicle: saline 106 % of control | dose: 400.0 mg/kg/injection, schedule: Q01DX001 (ip), vehicle: saline 105 % of control

O=[N+]([O-])c1ccc(S(=O)c2ccc([N+](=O)[O-])cc2)cc1
inactive: [1] 108 % of control | [2] 98 % of control | dose: 200.0 mg/kg/injection, schedule: Q01DX009 (ip), vehicle: Klucel (hydroxypropylcellulose) (HPC) 95 % of control | [3] 98 % of control | dose: 400.0 mg/kg/injection, schedule: Q01DX009 (ip), vehicle: Klucel (hydroxypropylcellulose) (HPC) 101 % of control | [4] 93 % of control

CCCCC(CCCC(=O)O)C(=O)O (stereo not drawn)
inactive: [5] 93 % of control | [6] 96 % of control | dose: 400.0 mg/kg/injection, schedule: Q01DX001 (ip), vehicle: carboxymethylcellulose (CMC) 98 % of control

COc1ccc(C2=C(Br)C(=O)C(c3ccc(OC)cc3)=C(Br)C2=O)cc1
inactive: [2] 94 % of control | [3] 96 % of control | [4] 98 % of control

Fc1ccc(NC(=S)NCCN2CCCC2)cc1
inactive: [7] 100 % of control | [8] 117 % of control | [1] 100 % of control and 102 % of control

COc1cc2c(cc1OC(C)=O)C(=O)C(Br)CCC2 (stereo not drawn)
inactive: dose: 50.0 mg/kg/injection, schedule: Q01DX009 (ip), vehicle: saline with Tween-80 90 % of control | [9] 101 % of control | [10] 93 % of control

O=S1(=O)CCCCN1
inactive: dose: 44.0 mg/kg/injection, schedule: Q01DX009 (ip), vehicle: saline 101 % of control | dose: 87.5 mg/kg/injection, schedule: Q01DX009 (ip), vehicle: saline 102 % of control | dose: 175.0 mg/kg/injection, schedule: Q01DX009 (ip), vehicle: saline 98 % of control | dose: 350.0 mg/kg/injection, schedule: Q01DX009 (ip), vehicle: saline 90 % of control

OCC(O)C(O)C(OC1OC(CO)C(O)C(O)C1O)C(O)CO (stereo not drawn)
inactive: [11] 99 % of control | [12] 89 % of control | [13] 99 % of control

c1ccc(CN(CCNc2ccccc2)c2ccccc2)cc1
inactive: dose: 50.0 mg/kg/injection, schedule: Q01DX009 (ip), vehicle: water 97 % of control | dose: 100.0 mg/kg/injection, schedule: Q01DX009 (ip), vehicle: water 94 % of control

CC(C)C(=O)c1ccc([N+](=O)[O-])o1
inactive: [9] 94 % of control | [14] 99 % of control | [10] 96 % of control | [15] 99 % of control | [16] 88 % of control

COc1cccc(CCNC(=O)CC#N)c1
inactive: [2] 98 % of control | [3] 87 % of control | [4] 91 % of control

CC(=O)N(Cc1cccc([N+](=O)[O-])c1)c1ccc(C(=O)O)cc1
inactive: dose: 100.0 mg/kg/injection, schedule: Q01DX001 (ip), vehicle: saline with Tween-80 98 % of control | dose: 200.0 mg/kg/injection, schedule: Q01DX001 (ip), vehicle: saline with Tween-80 119 % of control | dose: 400.0 mg/kg/injection, schedule: Q01DX001 (ip), vehicle: saline with Tween-80 93 % of control

CCCCNC(c1ccccc1)=[N+]1CCCCC1
inactive: dose: 12.5 mg/kg/injection, schedule: Q04DX002 (ip), vehicle: saline 92 % of control | dose: 25.0 mg/kg/injection, schedule: Q04DX002 (ip), vehicle: saline 98 % of control

CN1C(c2ccco2)NC(=O)C12CCN(Cc1ccccc1)CC2 (stereo not drawn)
inactive: [5] 101 % of control | [6] 93 % of control

Cc1c[n+](CC(=O)c2ccccc2)cn1CC(=O)c1ccccc1
inactive: [7] 102 % of control and 105 % of control | dose: 25.0 mg/kg/injection, schedule: Q04DX002 (ip), vehicle: Klucel (hydroxypropylcellulose) (HPC) 95 % of control and 102 % of control | [8] 100 % of control and 116 % of control | dose: 50.0 mg/kg/injection, schedule: Q04DX002 (ip), vehicle: Klucel (hydroxypropylcellulose) (HPC) 95 % of control and 100 % of control | [1] 102 % of control and 108 % of control

CSc1nc2cc(C)c(C)cc2[nH]1
inactive: [14] 107 % of control | [15] 94 % of control | [16] 94 % of control

CC(=O)NCS(=O)(=O)O
inactive: dose: 100.0 mg/kg/injection, schedule: Q01DX009 (ip), vehicle: saline 104 % of control | dose: 200.0 mg/kg/injection, schedule: Q01DX009 (ip), vehicle: saline 96 % of control

CC1C2CCC(C2)C1(C)C (stereo not drawn)
inactive: [11] 93 % of control | [12] 100 % of control | [13] 102 % of control

c1ccc(-c2nn(-c3ccccc3)[n+](-c3ccccc3-c3ccccc3)n2)cc1
inactive: dose: 4.0 mg/kg/injection, schedule: Q01DX015 (ip), vehicle: carboxymethylcellulose (CMC) 98 % of control | dose: 8.0 mg/kg/injection, schedule: Q01DX015 (ip), vehicle: carboxymethylcellulose (CMC) 93 % of control | dose: 16.0 mg/kg/injection, schedule: Q01DX015 (ip), vehicle: carboxymethylcellulose (CMC) 94 % of control

COc1cc(O)c(/C=N\N=C\c2ccco2)c(OC)c1
inactive: dose: 75.0 mg/kg/injection, schedule: Q01DX001 (ip), vehicle: saline 90 % of control | dose: 150.0 mg/kg/injection, schedule: Q01DX001 (ip), vehicle: saline 90 % of control | dose: 300.0 mg/kg/injection, schedule: Q01DX001 (ip), vehicle: saline 86 % of control
